In patent US9822414B2, “In vitro method for predicting in vivo genotoxicity of chemical compounds” (priority 2011, dated 2017):
Where “and” joins values, the source holds several entries; their conditions need not be identical. Equal values may be shown once.

Tests used:
NR0B2 = assay: Gene expression of NR0B2 in HepG2 cells exposed to compound (microarray, log2 treatment:control ratio); assay type: cell-based, human
HepG2 cell [1] = assay: Class prediction of in vivo genotoxicity by the method of the invention (Ames stratification plus three-gene expression in HepG2); settings: 62 compounds, three replicates, HepG2 24 h
[2] = test system: conventional in vitro genotoxicity assays; settings: cited from earlier work
HepG2 cell [3] = test system: HepG2 cell
PWWP2B = assay: Gene expression of PWWP2B in HepG2 cells exposed to compound (microarray, log2 treatment:control ratio); assay type: cell-based, human
LOC100505880 = assay: Gene expression of LOC100131914/LOC100505880 in HepG2 cells exposed to compound (microarray, log2 treatment:control ratio); assay type: cell-based, human
rodents = settings: cited from earlier work
Salmonella typhimurium = settings: cited from earlier work

Compound: [NH2][Pt]([NH2])([Cl])[Cl] [cisPt]
- NR0B2 above or below the reference value (NR0B2): + (Plus sign indicates a value above the reference value)
- Prediction (class prediction results using the method of the invention) (HepG2 cell [1]): GTX
- In vitro GTX [2]: +
- At least ⅔ genes +? (HepG2 cell [3]): GTX
- Average result over three measurements (HepG2 cell [3]): GTX
- Log2 treatment: control ratio PWWP2B (PWWP2B): 0.095 and −0.147 and −0.18
- LOC100505880 above or below the reference value (LOC100505880): + (Plus sign indicates a value above the reference value)
- Standard (in vivo genotoxicity designation) (rodents; in vivo): GTX
- In vivo GTX (rodents; positive when at least one in vivo assay (MN, CA) positive, equivocal considered positive): +
- Ames (Salmonella typhimurium): +
